Earlier results as cited in publication PMC6311893, “Computational prediction of plasma protein binding of cyclic peptides from small molecule experimental data using sparse modeling techniques” (BMC Bioinformatics, 2018).
Non-standard residues stand in square brackets, D forms with d. Residues, ends and D or L forms follow the SMILES beside them. dPhe(4-Cl) = N[C@H](Cc1ccc(Cl)cc1)C(=O)O; d2Nal = N[C@H](Cc1ccc2ccccc2c1)C(=O)O; dCit = NC(=O)NCCC[C@@H](N)C(=O)O; d3Pal = N[C@H](Cc1cccnc1)C(=O)O

System: plasma protein
Details: fraction bound to plasma protein; small molecule dataset, sheet 1-SM (Set Dte = test, Dtr = training); ref Ingle et al.; cited from earlier work

| Molecule | PPB (fb) |
| --- | --- |
| COc1cccc(-n2cc(C(=O)O)c(=O)c3cc(F)c(N4CCNCC4)cc32)c1 [5b(m-OCH3)] | 0.35 |
| CN1CCN(C(c2ccccc2)c2ccc(Cl)cc2)CC1 (stereo not drawn) [chlorcyclizine] | 0.87 |
| C/N=C(\NC)NCc1ccccc1 [bethanidine] | 0.1 |
| OCCN(CCO)c1nc(N2CCCCC2)c2nc(N(CCO)CCO)nc(N3CCCCC3)c2n1 [dipyridamole] | 0.99 |
| CNC(=O)c1c(I)c(NC(C)=O)c(I)c(C(=O)O)c1I [Iothalamic acid (Iothalamate)] | 0.02 |
| O=C1CN(/N=C/c2ccc(-c3ccc([N+](=O)[O-])cc3)o2)C(O)=N1 [dantrolene] | 0.89 |
| CCN[C@@H]1C[C@H](N)[C@@H](O[C@H]2OC(CN)=CC[C@H]2N)[C@H](O)[C@H]1O[C@H]1OC[C@](C)(O)[C@H](NC)[C@H]1O [Netilmicin] | 0.05 |
| CN1CCC(=C2c3ccccc3CCc3sccc32)CC1 [pizotyline] | 0.91 |
| CNC(=C[N+](=O)[O-])NCCSCc1ccc(CN(C)C)o1 [Ranitidine] | 0.1 |
| O=C(O)c1cn(-c2cccc(O)c2)c2cc(N3CCNCC3)c(F)cc2c1=O [8b(m-OH)] | 0.35 |

Same assay, conditions: fraction bound to plasma protein; small molecule dataset, sheet 1-SM, Set Dtr; ref Ingle et al.; cited from earlier work

| Molecule | PPB (fb) |
| --- | --- |
| Nc1ccn([C@H]2CC[C@@H](CO)O2)c(=O)n1 [zalcitabine] | 0.03 |
| Cc1onc(-c2ccccc2)c1C(=O)N[C@@H]1C(=O)N2[C@@H]1SC(C)(C)[C@@H]2C(=O)O [Oxacillin] | 0.92 |
| CC1(C)S[C@@H]2[C@H](NC(=O)[C@H](N)c3ccc(O)cc3)C(=O)N2[C@H]1C(=O)O [Amoxicillin] | 0.17 |
| Nc1ccn(C[C@@H](CO)OCP(=O)(O)O)c(=O)n1 [Cidofovir] | 0.02 |
| CC(=O)OCC1=C(C(=O)O)N2C(=O)[C@@H](NC(=O)CSc3ccncc3)[C@H]2SC1 [Cephapirin] | 0.53 |
| COc1ccccc1N1CCN(CCCNc2cc(=O)n(C)c(=O)n2C)CC1 [urapidil] | 0.8 |
| CC(=O)O[C@H]1C(=O)[C@@]2(C)[C@H]([C@H](OC(=O)c3ccccc3)[C@]3(O)C[C@H](OC(=O)[C@H](O)[C@@H](NC(=O)c4ccccc4)c4ccccc4)C(C)=C1C3(C)C)[C@]1(OC(C)=O)CO[C@@H]1C[C@@H]2O [Paclitaxel] | 0.76 |
| C[C@@H]1C[C@H]2[C@@H]3CCC4=CC(=O)C=C[C@]4(C)[C@@]3(F)[C@@H](O)C[C@]2(C)[C@@]1(O)C(=O)CO [Dexamethasone] | 0.68 |
| COc1cc2nc(N3CCN(C(=O)C4COc5ccccc5O4)CC3)nc(N)c2cc1OC (stereo not drawn) [Doxazosin] | 0.97 |
| CC1(C)S[C@@H]2[C@H](NC(=O)[C@H](NC(=O)N3CCN(S(C)(=O)=O)C3=O)c3ccccc3)C(=O)N2[C@H]1C(=O)O [Mezlocillin] | 0.31 |

Same assay, conditions: fraction bound to plasma protein; small molecule dataset, sheet 1-SM; ref Ingle et al.; cited from earlier work

| Molecule | PPB (fb) |
| --- | --- |
| Nc1nc(N)c2nc(-c3ccccc3)c(N)nc2n1 [Triamterene] | 0.59 |
| CC12CC3CC(C)(C1)CC(N)(C3)C2 [Memantine] | 0.45 |
| CCC(=O)O[C@@H](O[P@](=O)(CCCCc1ccccc1)CC(=O)N1C[C@H](C2CCCCC2)C[C@H]1C(=O)O)C(C)C [fosinopril] | 0.95 |
| OCCN1CCN(CCCN2c3ccccc3C=Cc3ccccc32)CC1 [opipramol] | 0.9 |
| CO[C@H]1/C=C/O[C@@]2(C)Oc3c(C)c(O)c4c(O)c(c(/C=N/N5CCN(C6CCCC6)CC5)c(O)c4c3C2=O)NC(=O)/C(C)=C\C=C\[C@H](C)[C@H](O)[C@@H](C)[C@@H](O)[C@@H](C)[C@H](OC(C)=O)[C@@H]1C [Rifapentine] | 0.93 |
| CCCN1C[C@H](CSC)C[C@@H]2c3cccc4[nH]cc(c34)C[C@H]21 [pergolide] | 0.9 |
| CO[C@H]1C[C@@H]2CC[C@@H](C)[C@@](O)(O2)C(=O)C(=O)N2CCCC[C@H]2C(=O)O[C@H]([C@H](C)C[C@@H]2CC[C@@H](O)[C@H](OC)C2)CC(=O)[C@H](C)/C=C(\C)[C@@H](O)[C@@H](OC)C(=O)[C@H](C)C[C@H](C)/C=C/C=C/C=C/1C [sirolimus] | 0.92 |
| CN1C(C(=O)Nc2ccccn2)=C(O)c2ccccc2S1(=O)=O [piroxicam] | 0.99 |
| Cc1ccc(O)c([C@H](CCN(C(C)C)C(C)C)c2ccccc2)c1 [Tolterodine] | 0.96 |
| Cc1cc2c(OCC(O)CNC(C)C)cccc2[nH]1 (stereo not drawn) [mepindolol] | 0.5 |
| Cc1nc2ccc(CN(C)c3ccc(C(=O)N[C@@H](CCC(=O)O)C(=O)O)s3)cc2c(=O)[nH]1 [raltitrexed] | 0.93 |
| CCOC(=O)[C@H](CCc1ccccc1)N[C@@H](C)C(=O)N1Cc2ccccc2C[C@H]1C(=O)O [quinapril] | 0.97 |
| CC1(C)SC2C(NC(=O)C(N)c3ccc(Cl)cc3)C(=O)N2C1C(=O)O (stereo not drawn) [penicillin28] | 0.55 |
| COc1cc(/C=C/C(=O)O)ccc1O [ferulic acid] | 0.73 |
| CCCCC1C(=O)N(c2ccccc2)N(c2ccc(O)cc2)C1=O (stereo not drawn) [oxyphenbutazone] | 0.99 |
| CC(NCCc1ccc(O)cc1)C(O)c1ccc(O)cc1 (stereo not drawn) [Ritodrine] | 0.33 |
| COC(C(=O)NC1C(=O)N2C1SC(C)(C)C2C(=O)O)c1cccc(Cl)c1 (stereo not drawn) [penicillin40] | 0.83 |
| CC(=O)O[C@H]1C[C@@]2(C)[C@@H](C[C@@H](O)[C@H]3[C@@]4(C)CC[C@@H](O)[C@@H](C)[C@@H]4CC[C@@]32C)/C1=C(\CCC=C(C)C)C(=O)O [fusidic acid] | 0.95 |
| CCOCCC(=O)NC1C(=O)N2C1SC(C)(C)C2C(=O)O (stereo not drawn) [penicillin11] | 0.25 |
| CC[C@H]1OC(=O)[C@H](C)C(=O)[C@H](C)[C@@H](O[C@@H]2O[C@H](C)C[C@H](N(C)C)[C@H]2O)[C@](C)(OC)C[C@@H](C)C(=O)[C@H](C)[C@H]2N(CCCCn3cnc(-c4cccnc4)c3)C(=O)O[C@]12C [Telithromycin] | 0.59 |
| Cn1cc(NC(=O)c2cc(NC(=O)c3cc(NC(=O)c4nsc(Cl)c4Cl)cn3C)cn2C)cc1C(=O)NCCC(=N)N [GSQ1530] | 0.89 |

Same assay, conditions: human, plasma; cited from earlier work

| Molecule | PPB (fb) |
| --- | --- |
| CC(=O)N[C@H](Cc1ccc2ccccc2c1)C(=O)N[C@H](Cc1ccc(Cl)cc1)C(=O)N[C@H](Cc1cccnc1)C(=O)N[C@@H](CO)C(=O)N[C@@H](Cc1ccc(O)cc1)C(=O)N[C@H](CCCNC(N)=O)C(=O)N[C@@H](CC(C)C)C(=O)N[C@@H](CCCNC(=N)N)C(=O)N1CCC[C@H]1C(=O)N[C@H](C)C(N)=O [Cetrorelix] (Ac-[d2Nal][dPhe(4-Cl)][d3Pal]SY[dCit]LRP[dA]-NH2) | 0.86 |

Same assay, conditions: plasma; cited from earlier work

| Molecule | PPB (fb) |
| --- | --- |
| CCC1(c2ccccc2)C(=O)NC(=O)N(C)C1=O (stereo not drawn) [methylphenobarbital] | 0.5 |
| idoxuridine | 0 |
| CN1C(=O)C(O)N=C(c2ccccc2Cl)c2cc(Cl)ccc21 (stereo not drawn) [Lormetazepam] | 0.86 |
| ceftibuten | 0.65 |
| Brotizolam | 0.9 |
| CCC(C)C1(CC)C(=O)NC(=O)NC1=O (stereo not drawn) [secbutabarbital] | 0.26 |
| Cc1nnc2n1-c1ccc(Cl)cc1C(c1ccccc1Cl)=NC2 [Triazolam] | 0.89 |
| Cefodizime | 0.81 |
| CCN(C)C(=O)Oc1cccc([C@H](C)N(C)C)c1 [Rivastigmine] | 0.4 |
| O=C(O)CCCc1ccc(N(CCCl)CCCl)cc1 [Chlorambucil] | 0.99 |
| Tetracycline | 0.36 |
| CCC1(c2ccccc2)C(=O)NC(=O)NC1=O [Phenobarbital] | 0.43 |
